Laboratory results: patent EP0288055B1, “Use of ODC inhibitors, dacarbazine, and interferon, in the treatment of malignant melanoma” (MERRELL DOW PHARMACEUTICALS INC., priority 1987, dated 1988)

Test system: B16 melanoma
Assay: Effect on the growth of B16 melanoma in mice (tumor weight at sacrifice)
Type: in vivo
Conditions: for Tumor Weight (g) (Mean ± S.E.): B16 melanoma cells (1 x 10^5 cells/animal) S.C., tumors weighed on day 18, DFMO 2% in drinking water day 1-18, DTIC 6.25 mg/Kg i.p. once daily day 1-15, IFN 1000 units/animal S.C. alternate days day 2-18; for % Inhibition: inhibition of tumor weight vs control on day 18, same dosing as for tumor weight
Source text: EFFECT OF A COMBINATION OF α-DIFLUOROMETHYLORNITHINE (DFMO), DACARBAZINE (DTIC) AND α-INTERFERON (IFN) ON THE GROWTH OF B16 MELANOMA IN MICE

Row | SMILES | Tumor Weight (g) (Mean ± S.E.) | % Inhibition [%]
1 | NCCC[C@](N)(C(=O)O)C(F)F [DFMO, α-difluoromethyl ornithine] | 1.02 ± 0.15 | 86.0
2 | CN(C)N=Nc1[nH]cnc1C(N)=O [DTIC, 5-(3,3-Dimethyl-1-triazenyl)-1H-imidazole-4-carboxamide] | 3.2 ± 0.63 | 35.0
